Laboratory results published in patent US20230104477A1, “USE OF DEHYDROASCORBIC ACID AGAINST NEMATODE INFECTION IN PLANTS” (Universiteit Gent, priority 2019, published 2023).

Tests used:
rice plants = assay: Root growth in rice after foliar spray, uninfected conditions; type: in vivo, Oryza sativa cv. Nipponbare; conditions: 14-days old rice, foliar spray 20 mM, 12 DAS, vs water control
Method: (§1) Rice—Seeds of wild-type rice Oryza sativa cv. Nipponbare were obtained from USDA (GSOR-100). Seeds were germinated on wet filter paper for 4-5 days at 30° C. and seedlings were then transferred to SAP-substrate (Sand mixed with Absorbent Polymer AquaPerla®, DCM, Belgium) and further grown at 28° C., under a light regime of (day/night) 12/12. Hoagland solution was given as a source of nutrients 3 times a week.
(§2) Reduced Ascorbic acid (AA, 20 mM), dehydroascorbic acid (DHA, 20 mM), ascorbate oxidase (AO, 20 U/ml), methyl jasmonate (MeJA, 100 μM), aminooxyacetic acid (AoA, 12.5 mM), diethyldithiocarbamic acid (DIECA, 100 μM) and ethephon (100 μM) were purchased from Sigma and dissolved in water (except MeJA that was first dissolved in a drop of ETOH) to attain the indicated concentration.
(§3) For foliar application, all chemicals were dissolved in water and 0.02% (v/v) of Tween20 as a surfactant was added prior to spraying on aerial portions of the rice plants. Control plants were sprayed with distilled water containing 0.02% Tween20. Eight plants per treatment were sprayed until run-off with 6.5 mL of solution (at 24 h prior to nematode inoculation, in cases where infected plants were used). The substrate was covered to avoid direct contact with the roots and/or nematodes.

rice seedlings = assay: Evaluation of seedling growth after drenching rice seedlings; type: in vivo, Oryza sativa cv. Nipponbare
Method: as §1, §2
3-days old rice seedlings were drenched with 1 mL of AA (20 mM), AO (20 U/mL), DHA (20 mM) or water (H2O) as a negative control. Rice root length and dry root weight as well as the number of embryonic crown roots (ECR) were measured 5 days after drenching.

[1] = Ascorbate measurements in shoots and roots of foliar sprayed rice; type: in vivo, Oryza sativa cv. Nipponbare; conditions: 24 h after foliar application; vs control plants
Method: as §3
[…] In each assay, 100 mg of crushed material was used per sample, and at least 4 biological replicates were analyzed per treatment. Reduced and oxidized AA were measured according to the method described in Ueda et al., 2013. Absorbance was monitored using a microplate reader (TECAN—Infinite200pro).

sugar beet plants = assay: Root and shoot growth in uninfected sugar beet plants after foliar spray; type: in vivo, Beta vulgaris cv. Amarok
Method: Sugar beet—seeds of cv. Amarok were germinated on moist tissue for 4-5 days at 25° C. For longer experiments seedlings were transplanted to polyvinyl-chloride (PVC) tubes containing fine soil particles. All experiments were conducted in a plant growth room at 25° C., with a 16/8 h day/night regime. The plants were fertilized by supplying Hoagland solution as a source of nutrients 3 times a week.
as §2, §3

Turnip mosaic virus = conditions: applied to Brassica rapa plants (Fujiwara et al., 2013); cited from earlier work
[2] = 3-days old rice seedlings drenched with 1 mL (AA 20 mM, DHA 20 mM, AO 20 U/ml), 5 days after drenching, vs water control
[3] = two-week old sugar beet, foliar spray, seven days later, effect not statistically significant

For O=C1O[C@H]([C@@H](O)CO)C(=O)C1=O [DHA, (5R)-5-[(1S)-1,2-dihydroxyethyl]furan-2,3,4(5H)-trione], the root length (rice plants) was “significantly longer roots”, the dry root weight (rice seedlings; [2]) was “significantly higher” and the “number of embryonic crown roots (ECR)” value (rice seedlings; [2]) was “significantly higher”. The root length (rice seedlings; [2]) was “significantly higher”, the “general appearance of seedlings” value (rice seedlings; rice seedlings drenched with DHA 20 mM) was “looked more vigorous” and the “amount of DHA in shoots” value [1] was “significantly higher amounts of DHA”. The “total ascorbate level in roots” value [1] was “increased”, the “general appearance of plants” value (sugar beet plants; sugar beet, foliar spray DHA 20 mM, throughout the experiment) was “looked more vigorous” and the root length (sugar beet plants; two-week old sugar beet, foliar spray (DHA 20 mM, AO 20 U/mL), seven days later, vs water control) was “significantly longer roots”. The fresh root weight (sugar beet plants; [3]) was “positively affected”, the shoot length (sugar beet plants; [3]) was “positively affected” and the antiviral effect (Turnip mosaic virus) was “antiviral effect”.
